The test system of experiment [1] is anti-KLH IgM and anti-KLH IgG antibodies. The experiment is described as follows: T-cell dependent antibody response (TDAR) assay in rats, KLH immunization. Type of experiment: in vivo, rat. The note with it: for anti-KLH IgG, mean percent difference compared to vehicle controls / anti-KLH IgM, mean percent difference compared to vehicle controls: 30 mg/kg/day oral. The protocol: T-cells play critical roles in immune regulation. T-cell Tec family kinases are important players in T-cell function, which in turn can modulate immune function. COMPOUND A was tested in a T-cell dependent antibody response (TDAR) assay, a frequently used functional assessment of the immune system. […] On study days 11 and 25 for the main study animals and days 28 and 42 for the recovery group, animals received 300 μg of KLH (Keyhole Limpet Hemocyanin) antigen. Samples for serology assessment of anti-KLH IgM and anti-KLH IgG antibodies (study days 19, 21, 23, 25 and 36 prior to dosing from the main study animals; recovery days 42 and 53 prior to KLH injection from the recovery animals) were collected. Immunomodulatory responses in COMPOUND A-treated animals following KLH immunization were noted when values were compared to concurrent vehicle controls. […] The decreases were also observed in mean anti-KLH IgM values on study days 21, 23, 25 (primary response, time course) and day 36 (post boosting) for female rats. For anti-KLH IgG antibodies, decreases in mean concentration were apparent on study days 19, 21, 23 and 25 for both male and female rats. On study day 36, decreases in mean concentration were detected in female rats. Recovery following withdrawal of COMPOUND A treatment was noted. The COMPOUND A-related decrease of anti-KLH antibody production in both male and female rats was reversible. This included both primary response-anti-KLH IgM, and isotype switch measured by secondary anti-KLH IgG production as indicated by values that were similar to concurrent controls at the recovery sampling time points (recovery day 42 and 53).

For another experiment, the system named is Human CD4 T cell. The experiment in a line: Human CD4 T cell proliferation assay (Cell Titer Glo). It is filed as cell-based. To be noted: 96 h, anti-CD3/anti-CD28 beads, 4 days. How it is done:
In the Human CD4 T cell assay, primary human CD4+ T cells isolated from a leukopak were cultured in the presence of anti-CD^3/anti-CD28 beads to stimulate T cell proliferation.

The target in the next experiment is T1, TXK (Homo sapiens, UniProt P42681).
T1 sequence (P42681 1-527): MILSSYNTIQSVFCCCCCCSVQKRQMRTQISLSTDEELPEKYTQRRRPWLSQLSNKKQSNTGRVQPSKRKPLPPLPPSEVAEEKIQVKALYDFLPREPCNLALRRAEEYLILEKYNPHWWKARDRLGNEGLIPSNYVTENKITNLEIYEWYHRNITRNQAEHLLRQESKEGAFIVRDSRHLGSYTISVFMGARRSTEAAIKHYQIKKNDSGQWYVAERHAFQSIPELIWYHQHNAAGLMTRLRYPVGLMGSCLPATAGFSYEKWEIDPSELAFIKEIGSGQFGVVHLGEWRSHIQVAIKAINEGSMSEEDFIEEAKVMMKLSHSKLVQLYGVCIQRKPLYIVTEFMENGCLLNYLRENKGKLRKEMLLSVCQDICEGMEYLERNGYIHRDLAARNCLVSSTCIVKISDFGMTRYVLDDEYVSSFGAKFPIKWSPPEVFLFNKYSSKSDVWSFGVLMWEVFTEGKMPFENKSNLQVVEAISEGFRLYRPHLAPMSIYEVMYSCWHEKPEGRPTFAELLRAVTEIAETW
The experiment is described as follows: Biochemical TXK assay (Caliper LabChip).

The next experiment deals with BTK (TMD-8). The experiment is described as follows: cells. To be noted: Homo sapiens, TMD8, 72 h, read-out: IC50, BTK (TMD-8) proliferation.
A further experiment concerns the target T2, TEC (Homo sapiens, UniProt P42680).
T2 sequence (P42680 1-631): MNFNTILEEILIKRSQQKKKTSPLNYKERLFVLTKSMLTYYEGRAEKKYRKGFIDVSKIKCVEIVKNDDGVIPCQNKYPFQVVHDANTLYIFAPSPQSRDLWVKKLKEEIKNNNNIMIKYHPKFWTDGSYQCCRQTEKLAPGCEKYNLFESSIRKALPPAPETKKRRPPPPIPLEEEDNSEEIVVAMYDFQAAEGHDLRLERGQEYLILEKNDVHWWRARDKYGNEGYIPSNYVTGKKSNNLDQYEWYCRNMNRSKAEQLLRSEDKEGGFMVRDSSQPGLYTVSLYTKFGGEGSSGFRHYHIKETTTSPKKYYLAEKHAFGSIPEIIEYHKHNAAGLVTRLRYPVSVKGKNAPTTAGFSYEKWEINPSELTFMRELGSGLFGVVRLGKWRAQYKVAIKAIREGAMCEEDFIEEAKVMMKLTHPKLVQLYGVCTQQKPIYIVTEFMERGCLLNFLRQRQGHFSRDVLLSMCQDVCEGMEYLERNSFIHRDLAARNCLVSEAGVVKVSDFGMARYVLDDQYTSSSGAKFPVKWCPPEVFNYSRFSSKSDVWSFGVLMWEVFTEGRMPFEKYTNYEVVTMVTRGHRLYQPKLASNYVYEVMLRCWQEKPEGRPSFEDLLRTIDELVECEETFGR
The experiment in a line: Biochemical TEC assay (Caliper LabChip).

A further experiment has as its system Mouse B cell. The experiment is described as follows: cells. To be noted: 72 h, read-out: IC50, Mouse B cell proliferation.
For experiment [2], the system named is TEC-family kinases (ITK, TEC, and TXK). The experiment is described as follows: Cellular IL-2 production assay in Jurkat cells (CD3/CD28 stimulation, ELISA). To be noted: Homo sapiens, read-out: IC50, IL2-Production. It is filed as cell-based. Background: ELISA stands for enzyme-linked immunosorbent assay.
Description: The cellular IL-2 Production assay was carried out using Jurkat cells.
Where [3] appears, read: female rats, study day 36 (post boosting).

Description for BTK (TMD-8): After 3 days, cell viability was measured using Cell Titer Glo.
Description for Mouse B cell: Cells were incubated at 37° C. in the presence of various concentrations of compound. After 3 days, cell viability was measured using Cell Titer Glo.

For the compound `Cc1cc(C(=O)Nc2nc3cccc(Cl)c3n2[C@@H]2CCCCN(C(=O)/C=C/CN(C)C)C2)ccn1` [COMPOUND A, (R,E)-N-(7-chloro-1-(1-(4-(dimethylamino)but-2-enoyl)azepan-3-yl)-1H-benzo[d]imidazol-2-yl)-2-methylisonicotinamide], the “anti-KLH IgG, mean percent difference compared to vehicle controls” value in experiment [1] (female rats, study day 19) is given as −96%; in experiment [1] (female rats, study day 21), −98%; in experiment [1] (female rats, study day 23), −97%; in experiment [1] (female rats, study day 25) it was −96%; in experiment [1] (setting [3]) it was −69%; in experiment [1] (male rats, study day 19), −78%. Moreover, the “anti-KLH IgG, mean percent difference compared to vehicle controls” value in experiment [1] (male rats, study day 21) was −84%; in experiment [1] (male rats, study day 23) it was −80%; in experiment [1] (male rats, study day 25), −83%. For the same compound, the “anti-KLH IgM, mean percent difference compared to vehicle controls” value is recorded as −88% in experiment [1] (female rats, study day 19); −75% in experiment [1] (female rats, study day 21); −71% in experiment [1] (female rats, study day 23); −63% in experiment [1] (female rats, study day 25); −67% in experiment [1] (setting [3]); −67% in experiment [1] (male rats, study day 19). The “reversibility of decrease of anti-KLH antibody production after withdrawal of treatment” value in experiment [1] (male and female rats, 30 mg/kg/day, recovery days 42 and 53) is recorded as “reversible”. The IC50 in the experiment on Human CD4 T cell came out at 140 nM; with BTK (TMD-8) it was 224 nM; in the experiment with Mouse B cell, 295 nM; in experiment [2], 21 nM. On TXK, the “IC50, TXK biochemical” value is recorded as “single digit nM potency”. Besides, at TEC, the “IC50, TEC biochemical” value is “single digit nM potency”.
With `C=CC(=O)N1CCC[C@@H](n2nc(-c3ccc(Oc4ccccc4)cc3)c3c(N)ncnc32)C1` [Ibrutinib, ibrutinib, reference compound], the IC50 in experiment [2] was found to be 284 nM.

(Values after patent US20190167694A1, “NEW THERAPEUTICS USES” (NOVARTIS AG, priority 2016, published 2019).)
